Reference: patent US20250129430A1, “HIGH ATP-AFFINITY PROTEIN AS THERAPEUTIC TARGET FOR INTRACTABLE CANCER MOLECULAR SUBTYPES AND INHIBITOR THEREOF” (VeraVerse Co., Ltd., priority 2021, published 2025)

What was measured:
Format in all cases: cell-based, human
[1] = tested on: non-SEM-type gastric cancer cell line; assay: Cell viability drug screen, AUC summary over non-SEM-type lines; details: in the non-SEM-type gastric cancer cell line
FU97 = assay: Cell viability drug screen, 12-point dose-response AUC; parameters: Average Area Under the Viability Curve (AUC), AUC norm value: scale not given here; details: FU97 cells, 72 hours; for area under the viability curve (AUC), normalized: 12-point dose-response
How it was run: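 Trapezoidal AUC of a 12-point, DMSO-normalized dose-response curve. Luminescent viability was measured after 72 h of exposure at 37° C to half-log serial dilutions (0.5% DMSO control), dosed 24 h after plating FU97 cells at 5×10^3 per well.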

[2] = tested on: SEM-type gastric cancer cell line; assay: Cell viability drug screen, AUC summary over SEM-type lines
Procedure: An FDA-approved small-molecule pharmacological compound (#L1300) and an anticancer compound for research (#L2000) were purchased from Selecckchem and a 10 mM solution was prepared in DMSO. A total of 1,345 compounds were tested the cell viability of the seven EMT gastric cancer cell lines.
Cells cultured for cell-based drug assay were inoculated into a 96-well white optical plate (Corning) at 5×10^3 cells per well. After 24 hours after inoculation, a 2.5 MJT (primary screen) or a half-log 12-serial diluent (secondary screen) of the pharmacological compound contained in DMSO is added to the cells with a robot using a BioMek FXp liquid processor (Beckman) to add to the cells at 50 mM. The final drug concentration in the 5 ns range and the DMSO specification control (0.5%) were calculated. The cells were then further incubated at 37° C. in a 5% CO2 incubator for 72 hours prior to measuring cell viability using the extra-GLO assay kit (Promega). The luminescent properties were measured after 15 min incubation at room temperature using a plate stacker equipped with a plate stacker. The normalized viability for the DMSO-based control was measured to generate a cell line-specific 12-point dose-response curve for each pharmacological compound, and then the area under the curve (AUC) was calculated using a trapezoidal method.

SNU16 = assay: Cell viability drug screen, 12-point dose-response AUC; details: SNU16 cells, 72 hours; for area under the viability curve (AUC), normalized: 12-point dose-response
How it was run: (§1)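 Luminescent viability readings, taken 15 min after reagent addition at room temperature, were normalized to the 0.5% DMSO control to build 12-point dose-response curves. Trapezoidal integration gave the AUC. Cells had been plated at 5×10^3 per well and then exposed to half-log dilutions for 72 h.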

YCC3 = assay: as above; details: YCC3 cells, 72 hours; for area under the viability curve (AUC), normalized: 12-point dose-response
How it was run: as §1

MKN45 = assay: as above; details: 72 hours; for area under the viability curve (AUC), normalized: MKN45 cells, 12-point dose-response
How it was run: (§2)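 Gastric cancer lines seeded 5×10^3 cells/well, dosed after 24 h with half-log 12-point compound dilutions (DMSO 0.5% control), then 72 h at 37 °C. Viability by luminescence, normalized to DMSO; AUC by trapezoidal method, averaged over repeats.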

YCC11 = assay: as above; details: 72 hours; for area under the viability curve (AUC), normalized: YCC11 cells, 12-point dose-response
How it was run: as §1

Hs746T = assay: as above; details: 72 hours; for area under the viability curve (AUC), normalized: Hs746T cells, 12-point dose-response
How it was run: as §1

NCC20 = assay: as above; details: NCC20 cells, 72 hours; for area under the viability curve (AUC), normalized: 12-point dose-response
How it was run: as §1

NCC59 = assay: as above; details: NCC59 cells, 72 hours; for area under the viability curve (AUC), normalized: 12-point dose-response
How it was run: as §1

MKN1 = assay: as above; details: MKN1 cells, 72 hours; for area under the viability curve (AUC), normalized: 12-point dose-response
How it was run: as §1

SNU1 = assay: as above; details: SNU1 cells, 72 hours; for area under the viability curve (AUC), normalized: 12-point dose-response
How it was run: as §1

SNU620 = assay: as above; details: SNU620 cells, 72 hours; for area under the viability curve (AUC), normalized: 12-point dose-response
How it was run: as §1

OCUM1 = assay: as above; details: OCUM1 cells, 72 hours; for area under the viability curve (AUC), normalized: 12-point dose-response
How it was run: as §1

SNU638 = assay: as above; details: SNU638 cells, 72 hours; for area under the viability curve (AUC), normalized: 12-point dose-response
How it was run: as §1

NCI_N87 = assay: as above; details: NCI_N87 cells, 72 hours; for area under the viability curve (AUC), normalized: 12-point dose-response
How it was run: as §1

SNU1750 = assay: as above; details: 72 hours; for area under the viability curve (AUC), normalized: SNU1750 cells, 12-point dose-response
How it was run: as §1

SNU1967 = assay: as above; details: SNU1967 cells, 72 hours; for area under the viability curve (AUC), normalized: 12-point dose-response
How it was run: as §1

MKN74 = assay: as above; details: MKN74 cells, 72 hours; for area under the viability curve (AUC), normalized: 12-point dose-response
How it was run: as §2

NCC19 = assay: as above; details: NCC19 cells, 72 hours; for area under the viability curve (AUC), normalized: 12-point dose-response
How it was run: as §1

SNU668 = assay: as above; details: 72 hours; for area under the viability curve (AUC), normalized: SNU668 cells, 12-point dose-response
How it was run: as §1

KATO3 = assay: as above; details: KATO3 cells, 72 hours; for area under the viability curve (AUC), normalized: 12-point dose-response
How it was run: as §1

MKN28 = assay: as above; details: MKN28 cells, 72 hours; for area under the viability curve (AUC), normalized: 12-point dose-response
How it was run: as §1

AGS = assay: as above; details: 72 hours; for area under the viability curve (AUC), normalized: AGS cells, 12-point dose-response
How it was run: as §2

YCC2 = assay: as above; details: YCC2 cells, 72 hours; for area under the viability curve (AUC), normalized: 12-point dose-response
How it was run: as §1

SNU484 = assay: as above; details: 72 hours; for area under the viability curve (AUC), normalized: SNU484 cells, 12-point dose-response
How it was run: as §1

SNU719 = assay: as above; details: SNU719 cells, 72 hours; for area under the viability curve (AUC), normalized: 12-point dose-response
How it was run: as §2

SK4 = assay: as above; details: 72 hours; for area under the viability curve (AUC), normalized: SK4 cells, 12-point dose-response
How it was run: as §1

SNU601 = assay: as above; details: SNU601 cells, 72 hours; for area under the viability curve (AUC), normalized: 12-point dose-response
How it was run: as §1

NCC24 = assay: as above; details: NCC24 cells, 72 hours; for area under the viability curve (AUC), normalized: 12-point dose-response
How it was run: as §1

SNU216 = assay: as above; details: 72 hours; for area under the viability curve (AUC), normalized: SNU216 cells, 12-point dose-response
How it was run: as §2

## C[C@@H]1O[C@@H](O[C@H]2C[C@@H](O)[C@]3(CO)[C@H]4[C@H](O)C[C@]5(C)[C@@H](C6=CC(=O)OC6)CC[C@]5(O)[C@@H]4CC[C@]3(O)C2)[C@H](O)[C@H](O)[C@H]1O [Oubain, Ouabain]
[1]
  AUC value: high
FU97
  area under the viability curve (AUC), normalized: −0.3889
[2]
  normalized viability AUC: negative
SNU16
  area under the viability curve (AUC), normalized: 2.229
YCC3
  area under the viability curve (AUC), normalized: 4.209
MKN45
  area under the viability curve (AUC), normalized: −0.3665
YCC11
  area under the viability curve (AUC), normalized: −0.3494
Hs746T
  area under the viability curve (AUC), normalized: 0.3093
NCC20
  area under the viability curve (AUC), normalized: 0.2365
NCC59
  area under the viability curve (AUC), normalized: 1.567
MKN1
  area under the viability curve (AUC), normalized: −1.223
SNU1
  area under the viability curve (AUC), normalized: −0.4741
SNU620
  area under the viability curve (AUC), normalized: 0
OCUM1
  area under the viability curve (AUC), normalized: 0.1113
SNU638
  area under the viability curve (AUC), normalized: 1.054
NCI_N87
  area under the viability curve (AUC), normalized: 0.9192
SNU1750
  area under the viability curve (AUC), normalized: −0.7374
SNU1967
  area under the viability curve (AUC), normalized: 0.9873
MKN74
  area under the viability curve (AUC), normalized: −0.9472
NCC19
  area under the viability curve (AUC), normalized: 0.3874
SNU668
  area under the viability curve (AUC), normalized: −1.026
KATO3
  area under the viability curve (AUC), normalized: 4.783
MKN28
  area under the viability curve (AUC), normalized: −0.5183
AGS
  area under the viability curve (AUC), normalized: −0.4351
YCC2
  area under the viability curve (AUC), normalized: −0.6785
SNU484
  area under the viability curve (AUC), normalized: −2.03
SNU719
  area under the viability curve (AUC), normalized: 5.038
SK4
  area under the viability curve (AUC), normalized: −1.414
SNU601
  area under the viability curve (AUC), normalized: 2.702
NCC24
  area under the viability curve (AUC), normalized: −0.2417
SNU216
  area under the viability curve (AUC), normalized: 0.2009

## CN(C)c1ccc(C(=C2C=CC(=[N+](C)C)C=C2)c2ccc(N(C)C)cc2)cc1 [Crystal Violet, Crystal violet]
[1]
  AUC value: high
FU97
  area under the viability curve (AUC), normalized: −0.985
SNU16
  area under the viability curve (AUC), normalized: −0.5668
YCC3
  area under the viability curve (AUC), normalized: 0.9437
MKN45
  area under the viability curve (AUC), normalized: 1.101
YCC11
  area under the viability curve (AUC), normalized: −0.8996
Hs746T
  area under the viability curve (AUC), normalized: −0.2085
NCC20
  area under the viability curve (AUC), normalized: −1.031
NCC59
  area under the viability curve (AUC), normalized: 0.5098
MKN1
  area under the viability curve (AUC), normalized: 0.4211
SNU1
  area under the viability curve (AUC), normalized: −0.5355
SNU620
  area under the viability curve (AUC), normalized: −0.7672
OCUM1
  area under the viability curve (AUC), normalized: 0.7741
SNU638
  area under the viability curve (AUC), normalized: −0.4956
NCI_N87
  area under the viability curve (AUC), normalized: 0.4907
SNU1750
  area under the viability curve (AUC), normalized: −0.5514
SNU1967
  area under the viability curve (AUC), normalized: 0.3458
MKN74
  area under the viability curve (AUC), normalized: −0.5721
NCC19
  area under the viability curve (AUC), normalized: 0.4873
SNU668
  area under the viability curve (AUC), normalized: 0.1937
KATO3
  area under the viability curve (AUC), normalized: 0.911
MKN28
  area under the viability curve (AUC), normalized: 0
AGS
  area under the viability curve (AUC), normalized: −0.4769
YCC2
  area under the viability curve (AUC), normalized: 0.4289
SNU484
  area under the viability curve (AUC), normalized: −0.7108
SNU719
  area under the viability curve (AUC), normalized: 3.076
SK4
  area under the viability curve (AUC), normalized: −1.015
SNU601
  area under the viability curve (AUC), normalized: 0.9442
NCC24
  area under the viability curve (AUC), normalized: 0.2743
SNU216
  area under the viability curve (AUC), normalized: −0.02818

## CCC[C@H](NC(=O)/C(C#N)=C/c1cccc(Br)n1)c1ccccc1 [WP1130]
[1]
  AUC value: high
FU97
  Average Area Under the Viability Curve (AUC), AUC norm value: −0.7929
SNU16
  Average Area Under the Viability Curve (AUC), AUC norm value: 0
YCC3
  Average Area Under the Viability Curve (AUC), AUC norm value: 0.8784
MKN45; MKN45 cells (non-SEM subtype)
  Average Area Under the Viability Curve (AUC), AUC norm value: 1.024
YCC11; YCC11 cells (SEM subtype)
  Average Area Under the Viability Curve (AUC), AUC norm value: −0.2144
Hs746T; Hs746T cells (SEM subtype)
  Average Area Under the Viability Curve (AUC), AUC norm value: −0.3738
NCC20
  Average Area Under the Viability Curve (AUC), AUC norm value: −0.8247
NCC59
  Average Area Under the Viability Curve (AUC), AUC norm value: 0.7588
MKN1
  Average Area Under the Viability Curve (AUC), AUC norm value: −0.4264
SNU1
  Average Area Under the Viability Curve (AUC), AUC norm value: 1.527
SNU620
  Average Area Under the Viability Curve (AUC), AUC norm value: 1.336
OCUM1
  Average Area Under the Viability Curve (AUC), AUC norm value: −0.652
SNU638
  Average Area Under the Viability Curve (AUC), AUC norm value: −0.3485
NCI_N87
  Average Area Under the Viability Curve (AUC), AUC norm value: 2.159
SNU1750; SNU1750 cells (SEM subtype)
  Average Area Under the Viability Curve (AUC), AUC norm value: −0.8602
SNU1967
  Average Area Under the Viability Curve (AUC), AUC norm value: −0.7195
MKN74
  Average Area Under the Viability Curve (AUC), AUC norm value: −0.1908
NCC19
  Average Area Under the Viability Curve (AUC), AUC norm value: 1.376
SNU668; SNU668 cells (SEM subtype)
  Average Area Under the Viability Curve (AUC), AUC norm value: 0.1607
KATO3
  Average Area Under the Viability Curve (AUC), AUC norm value: 1.454
MKN28
  Average Area Under the Viability Curve (AUC), AUC norm value: −0.04006
AGS; AGS cells (non-SEM subtype)
  Average Area Under the Viability Curve (AUC), AUC norm value: −0.6997
YCC2
  Average Area Under the Viability Curve (AUC), AUC norm value: 0.94
SNU484; SNU484 cells (SEM subtype)
  Average Area Under the Viability Curve (AUC), AUC norm value: −0.8971
SNU719
  Average Area Under the Viability Curve (AUC), AUC norm value: 1.245
SK4; SK4 cells (SEM subtype)
  Average Area Under the Viability Curve (AUC), AUC norm value: −0.08364
SNU601
  Average Area Under the Viability Curve (AUC), AUC norm value: 3.24
NCC24
  Average Area Under the Viability Curve (AUC), AUC norm value: 0.3475
SNU216; SNU216 cells (non-SEM subtype)
  Average Area Under the Viability Curve (AUC), AUC norm value: 0.1101
